Source: patent US9327145B2, “Cosmetic compositions comprising manikara multinervis and extracts thereof” (Cognis IP Management GmbH, priority 2009, dated 2016)
Marks after values point to notes of the source that are not given here.

Columns and labels:
human dermal fibroblasts [1] = test: Tropoelastin synthesis by immunocytochemistry (ICC); format: cell-based; conditions: 10 ng/ml
Procedure: Manilkara multinervis extract according to example 1 was incubated on human dermal fibroblasts cultured in vitro and the synthesis of tropoelastin was measured in cell culture medium through an ICC method. It was tested in comparison to the positive reference TGF-β1 (Transforming Growth Factor-β1).
(§1) The human dermal fibroblasts were cultured within growth medium enriched with Fetal Calf Serum (FCS) and incubated for 3 days at 37° C. Then the growth medium was exchanged for a standard medium containing FCS at 1% and the Manilkara multinervis extract according to example 1 and incubated several days at 37° C. Thereafter, the tropoelastin synthesis was measured by immunocytochemistry (ICC) technique. The results were expressed in percentage of staining occupation and presented for 3 assays as a mean+/−SEM (Standard Error of Mean) of 6 measurements.

human dermal fibroblasts [2] = test: Fibulin-5 synthesis by immunocytochemistry (ICC); format: cell-based; conditions: 10 ng/ml, mean only
Procedure: Manilkara multinervis extract according to example 1 was incubated on human dermal fibroblasts cultured in vitro and the synthesis of fibulin-5 was measured in cell culture medium through an ICC method. It was tested in comparison to the positive reference TGF-β1 (Transforming Growth Factor-β1).
as §1, with “and incubated for 5 days at” for “and incubated several days at”, “Thereafter, the fibulin-5 synthesis was” for “Thereafter, the tropoelastin synthesis was”, “presented for 2 assays as” for “presented for 3 assays as”

human dermal fibroblasts [3] = test: Pro-collagen (type I) effect: released type I collagen (ELISA) and cellular proteins (Bradford); format: cell-based; conditions: 5 μg/ml; 3 days; percentage referring to the control medium; mean +/- SEM
Procedure: Manilkara multinervis extract according to example 1 was incubated on human dermal fibroblasts cultured in vitro and the release of collagen type I was measured in cell culture medium through an ELISA method. It was tested in comparison to the positive reference vitamin C (ascorbic acid). The human dermal fibroblasts were cultured within growth medium enriched with Fetal Calf Serum (FCS) and incubated for 1 day at 37° C. […] Thereafter, the cell number was measured by quantification of cellular proteins (Bradford's method) while the level of collagen synthesis was determined by quantification of collagen peptides in cell culture medium (ELISA method). The results were calculated through a reference range of proteins or collagen and then expressed in percentage referring to the control medium and presented as a mean+/−SEM (Standard Error of Mean) from 4 assays in triplicate.

collagen type I = test: Anti-glycation: non enzymatic glycation of collagen type I incubated with glucose (Schiff's bases fluorescence); format: biochemical; conditions: 3 weeks at 45° C., mean +/- SEM
Procedure: In order to evaluate the potential of Manilkara multinervis extract to reduce the rate of “non enzymatic” glycation of proteins such as skin collagen, the extract was tested in comparison to aminoguanidine as a positive reference. The “non-enzymatic” glycation results from the reaction of proteins with reducing sugars such as glucose and […]. These sugars react with the free amino groups present in the proteins to form the so called “Schiff's bases”, ultimately resulting in so-called “advanced glycosylation endproducts”. In human skin, the process of “non enzymatic” glycation causes in time a decrease of strength and an atrophy of dermis which are characteristic of skin aging.
The extracts were tested in vitro by incubating collagen type I in solution with glucose during 3 weeks at 45° C. Then the level of “non enzymatic” glycation was determined by measuring the rate of “Schiff's bases” through the record of fluorescence at 430 nm (excitation at 350 nm) of the supernatant solution recovered after centrifugation of the solutions during 15 minutes at 3500 rpm (revolution per minute). The rates of “non enzymatic” glycation were calculated as % referring to the control with glucose. The assays were repeated up to 6 times and the results were expressed in percentage referring to the control with glucose then presented as a mean+/− the SEM (standard error of mean) and statistically evaluated by the student t test. All % values given are weight-%.

Question: What does the source list for “TGF-β1: positive reference TGF-β1 (Transforming Growth Factor-β1)”?
Answer: stimulation of tropoelastin synthesis (mean) (human dermal fibroblasts [1]): 82%; % of staining occupation Assay 1 (fibulin-5) (human dermal fibroblasts [2]; Assay 1, control 15.57 +/− 4.38): 79.99%; % of staining occupation Assay 2 (fibulin-5) (human dermal fibroblasts [2]; Assay 2, control 2.65 +/− 0.36): 18.8%

Question: Which results are given for `O=C1O[C@H]([C@@H](O)CO)C(O)=C1O` [Vitamin C, ascorbic acid]?
Answer: Cellular Proteins (human dermal fibroblasts [3]): 97 +/− 4%; Released type I Collagen (human dermal fibroblasts [3]): 138 +/− 14** %

Question: With `N=C(N)NN` [Aminoguanidine, aminoguanidine] as the compound, how does the “Rate of Schiff's bases in %/control with glucose” value (from here on “Rate … in %/control with glucose”) (collagen type I; 0.02%) read?
Answer: 47 +/− 1** (n = 6) %/control with glucose

Question: And the “Rate … in %/control with glucose” value (collagen type I; 0.05%)?
Answer: 34 +/− 1** (n = 6) %/control with glucose

Question: What about the “Rate … in %/control with glucose” value (collagen type I; 0.1%) of the same compound?
Answer: 27 +/− 1** (n = 6) %/control with glucose
